Measured values published in the supplement of paper PMC10307832.

How the values were obtained:
Test in all cases: relative viability (nuclei count vs DMSO), 5 days (fraction); higher = more cells survive
[1] = tested on: 201T
Outline: (§1)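 Lung cancer cell lines in 1536-well plates got either a single drug or a fixed anchor-drug dose together with five library-drug doses (not always all listed) in √10 steps, by pin tool, on the day after seeding. Nuclei were counted after 5 days, and relative viability is the treated-to-vehicle ratio of nuclei counts. Values are medians of duplicate plates.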

[2] = tested on: HCC-44
Outline: as §1

[3] = tested on: NCI-H2170
Outline: as §1

[4] = tested on: NCI-H647
Outline: as §1

[5] = tested on: EPLC-272H
Outline: as §1

[6] = tested on: LCLC-97TM1
Outline: as §1

[7] = tested on: HCC-827
Outline: as §1

[8] = tested on: SW 1573
Outline: as §1

[9] = tested on: COR-L 105
Outline: as §1

[10] = tested on: H3255
Outline: as §1

[11] = tested on: NCI-H2087
Outline: as §1

[12] = tested on: PC-3 [JPC-3]
Outline: as §1

[13] = tested on: LU99A
Outline: as §1

[14] = tested on: NCI-H650
Outline: as §1

[15] = tested on: NCI-H2342
Outline: as §1

[16] = tested on: EKVX
Outline: as §1

[17] = tested on: NCI-H2085
Outline: as §1

[18] = tested on: NCI-H1666
Outline: as §1

[19] = tested on: NCI-H1437
Outline: as §1

[20] = tested on: LOU-NH91
Outline: as §1

[21] = tested on: BEN
Outline: as §1

[22] = tested on: NCI-H1975
Outline: as §1

SMILES: CCN(CC)CCCCNc1ncc2cc(-c3cc(OC)cc(OC)c3)c(NC(=O)NC(C)(C)C)nc2n1 + Cc1cc(Nc2cc(N3CCN(C)CC3)nc(Sc3ccc(NC(=O)C4CC4)cc3)n2)n[nH]1 [Tozasertib] (partner 0.1 µM)
- relative viability ([1]; first compound 0.01 µM): 0.995
- relative viability ([1]; first compound 0.03162 µM): 0.992
- relative viability ([1]; first compound 0.1 µM): 0.979
- relative viability ([1]; first compound 0.3162 µM): 1.02
- relative viability ([1]; first compound 1 µM): 0.721
- relative viability ([2]; first compound 0.01 µM): 1.1
- relative viability ([2]; first compound 0.03162 µM): 1.07
- relative viability ([2]; first compound 0.1 µM): 0.953
- relative viability ([2]; first compound 0.3162 µM): 0.899
- relative viability ([2]; first compound 1 µM): 0.85
- relative viability ([3]; first compound 0.01 µM): 0.619
- relative viability ([3]; first compound 0.03162 µM): 0.77
- relative viability ([3]; first compound 0.1 µM): 0.747
- relative viability ([3]; first compound 0.3162 µM): 0.755
- relative viability ([3]; first compound 1 µM): 0.65
- relative viability ([4]; first compound 0.01 µM): 0.265
- relative viability ([4]; first compound 0.03162 µM): 0.289
- relative viability ([4]; first compound 0.1 µM): 0.113
- relative viability ([4]; first compound 0.3162 µM): 0.332
- relative viability ([4]; first compound 1 µM): 0.223
- relative viability ([5]; first compound 0.01 µM): 0.282
- relative viability ([5]; first compound 0.03162 µM): 0.314
- relative viability ([5]; first compound 0.1 µM): 0.279
- relative viability ([5]; first compound 0.3162 µM): 0.212
- relative viability ([5]; first compound 1 µM): 0.234
- relative viability ([6]; first compound 0.01 µM): 0.236
- relative viability ([6]; first compound 0.03162 µM): 0.268
- relative viability ([6]; first compound 0.1 µM): 0.255
- relative viability ([6]; first compound 0.3162 µM): 0.34
- relative viability ([6]; first compound 1 µM): 0.236
- relative viability ([7]; first compound 0.01 µM): 0.536
- relative viability ([7]; first compound 0.03162 µM): 0.394
- relative viability ([7]; first compound 0.1 µM): 0.423
- relative viability ([7]; first compound 0.3162 µM): 0.547
- relative viability ([7]; first compound 1 µM): 0.396
- relative viability ([8]; first compound 0.01 µM): 0.249
- relative viability ([8]; first compound 0.03162 µM): 0.148
- relative viability ([8]; first compound 0.1 µM): 0.225
- relative viability ([8]; first compound 0.3162 µM): 0.193
- relative viability ([8]; first compound 1 µM): 0.173
- relative viability ([9]; first compound 0.01 µM): 0.366
- relative viability ([9]; first compound 0.03162 µM): 0.345
- relative viability ([9]; first compound 0.1 µM): 0.374
- relative viability ([9]; first compound 0.3162 µM): 0.354
- relative viability ([9]; first compound 1 µM): 0.354
- relative viability ([10]; first compound 0.01 µM): 0.91
- relative viability ([10]; first compound 0.03162 µM): 0.654
- relative viability ([10]; first compound 0.1 µM): 0.544
- relative viability ([10]; first compound 0.3162 µM): 0.607
- relative viability ([10]; first compound 1 µM): 0.585
- relative viability ([11]; first compound 0.01 µM): 0.243
- relative viability ([11]; first compound 0.03162 µM): 0.282
- relative viability ([11]; first compound 0.1 µM): 0.25
- relative viability ([11]; first compound 0.3162 µM): 0.236
- relative viability ([11]; first compound 1 µM): 0.251
- relative viability ([12]; first compound 0.01 µM): 0.988
- relative viability ([12]; first compound 0.03162 µM): 0.958
- relative viability ([12]; first compound 0.1 µM): 1.09
- relative viability ([12]; first compound 0.3162 µM): 0.892
- relative viability ([12]; first compound 1 µM): 0.632
- relative viability ([13]; first compound 0.01 µM): 0.283
- relative viability ([13]; first compound 0.03162 µM): 0.281
- relative viability ([13]; first compound 0.1 µM): 0.324
- relative viability ([13]; first compound 0.3162 µM): 0.269
- relative viability ([13]; first compound 1 µM): 0.265
- relative viability ([14]; first compound 0.01 µM): 0.714
- relative viability ([14]; first compound 0.03162 µM): 0.757
- relative viability ([14]; first compound 0.1 µM): 0.765
- relative viability ([14]; first compound 0.3162 µM): 0.704
- relative viability ([14]; first compound 1 µM): 0.66
- relative viability ([15]; first compound 0.01 µM): 0.448
- relative viability ([15]; first compound 0.03162 µM): 0.513
- relative viability ([15]; first compound 0.1 µM): 0.476
- relative viability ([15]; first compound 0.3162 µM): 0.469
- relative viability ([15]; first compound 1 µM): 0.537
- relative viability ([16]; first compound 0.01 µM): 0.475
- relative viability ([16]; first compound 0.03162 µM): 0.383
- relative viability ([16]; first compound 0.1 µM): 0.407
- relative viability ([16]; first compound 0.3162 µM): 0.558
- relative viability ([16]; first compound 1 µM): 0.366
- relative viability ([17]; first compound 0.01 µM): 0.819
- relative viability ([17]; first compound 0.03162 µM): 0.762
- relative viability ([17]; first compound 0.1 µM): 0.823
- relative viability ([17]; first compound 0.3162 µM): 0.729
- relative viability ([17]; first compound 1 µM): 0.639
- relative viability ([18]; first compound 0.01 µM): 0.529
- relative viability ([18]; first compound 0.03162 µM): 0.635
- relative viability ([18]; first compound 0.1 µM): 0.673
- relative viability ([18]; first compound 0.3162 µM): 0.672
- relative viability ([18]; first compound 1 µM): 0.614
- relative viability ([19]; first compound 0.01 µM): 0.426
- relative viability ([19]; first compound 0.03162 µM): 0.403
- relative viability ([19]; first compound 0.1 µM): 0.374
- relative viability ([19]; first compound 0.3162 µM): 0.46
- relative viability ([19]; first compound 1 µM): 0.335
- relative viability ([20]; first compound 0.01 µM): 0.613
- relative viability ([20]; first compound 0.03162 µM): 0.684
- relative viability ([20]; first compound 0.1 µM): 0.697
- relative viability ([20]; first compound 0.3162 µM): 0.677
- relative viability ([20]; first compound 1 µM): 0.574
- relative viability ([21]; first compound 0.01 µM): 0.371
- relative viability ([21]; first compound 0.03162 µM): 0.508
- relative viability ([21]; first compound 0.1 µM): 0.515
- relative viability ([21]; first compound 0.3162 µM): 0.489
- relative viability ([21]; first compound 1 µM): 0.507
- relative viability ([22]; first compound 0.01 µM): 0.876
- relative viability ([22]; first compound 0.03162 µM): 0.859
- relative viability ([22]; first compound 0.1 µM): 1.1
- relative viability ([22]; first compound 0.3162 µM): 0.992
- relative viability ([22]; first compound 1 µM): 0.407
